Calls of active or inactive are those of the source. No cut-off for these calls is given here.
Columns and labels:
PANC-1 [1] = experiment: Preferential cytotoxicity against human PANC-1 cells assessed as reduction in cell viability incubated for 24 hrs in nutrient-deprived medium by WST-8 assay; type: functional
[2] = Selectivity index, ratio of IC50 for cytotoxicity against human PANC-1 cells in nutrient-rich Dulbecco's modified Eagle's medium to PC50 for preferential cytotoxicity against human PANC-1 cells in nutrient-deprived medium; type: toxicity, cell-based
PANC-1 [3] = experiment: Cytotoxicity against human PANC-1 cells assessed as reduction in cell viability incubated for 24 hrs in nutrient-rich Dulbecco's modified Eagle's medium by WST-8 assay; type: functional, cell-based; conditions: PANC-1, 24 h
PANC-1 [4] = experiment: Potency index, ratio of pipernonaline PC50 to test compound PC50 for Preferential cytotoxicity against human PANC-1 cells assessed as reduction in cell viability incubated for 24 hrs in nutrient-deprived medium by WST-8 assay; type: functional
PANC-1 [5] = experiment: Inhibition of cell migration in human PANC-1 cells assessed as reduction in cell migration at 20 uM measured at 18 hrs in nutrient-rich Dulbecco's modified Eagle's medium by quantitative real-time cell migration assay relative to control; type: functional
PANC-1 [6] = experiment: Inhibition of cell migration in human PANC-1 cells assessed as reduction in cell migration at 20 uM measured at 12 hrs in nutrient-rich Dulbecco's modified Eagle's medium by quantitative real-time cell migration assay relative to control; type: functional
[7] = target: RAC-alpha serine/threonine-protein kinase (Homo sapiens) (UniProt P31749); experiment: Inhibition of Akt activation in human PANC-1 cells assessed as effect on Atg7 level at 1.25 to 5 uM incubated for 6 hrs in nutrient-deprived medium by Western blot analysis; type: cell-based; conditions: dose 1.25-5 µM
Chain of RAC-alpha serine/threonine-protein kinase (Homo sapiens) (P31749 whole entry): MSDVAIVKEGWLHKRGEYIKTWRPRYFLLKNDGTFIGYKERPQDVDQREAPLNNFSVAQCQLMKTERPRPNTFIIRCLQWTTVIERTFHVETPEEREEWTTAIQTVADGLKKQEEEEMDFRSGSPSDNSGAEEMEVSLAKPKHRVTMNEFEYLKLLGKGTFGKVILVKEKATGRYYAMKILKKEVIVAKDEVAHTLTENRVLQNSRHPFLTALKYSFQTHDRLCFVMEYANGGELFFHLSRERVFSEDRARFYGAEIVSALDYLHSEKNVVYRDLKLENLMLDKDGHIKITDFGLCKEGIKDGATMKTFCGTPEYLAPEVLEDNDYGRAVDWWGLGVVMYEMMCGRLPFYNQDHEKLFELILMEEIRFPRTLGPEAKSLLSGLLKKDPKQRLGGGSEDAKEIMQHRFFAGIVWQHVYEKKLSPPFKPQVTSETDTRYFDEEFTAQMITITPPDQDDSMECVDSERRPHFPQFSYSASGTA

[8] = target: RAC-alpha serine/threonine-protein kinase (Homo sapiens) (UniProt P31749); experiment: Inhibition of Akt activation in human PANC-1 cells assessed as effect on total Akt level at 1.25 to 5 uM incubated for 6 hrs in nutrient-deprived medium by Western blot analysis; type: cell-based; conditions: dose 1.25-5 µM
[9] = target: RAC-alpha serine/threonine-protein kinase (Homo sapiens) (UniProt P31749); experiment: Inhibition of Akt activation in human PANC-1 cells assessed as upregulation of LC3-II level at 1.25 to 5 uM incubated for 6 hrs in nutrient-deprived medium by Western blot analysis; type: cell-based; conditions: dose 1.25-5 µM
[10] = target: RAC-alpha serine/threonine-protein kinase (Homo sapiens) (UniProt P31749); experiment: Inhibition of Akt activation in human PANC-1 cells assessed as effect on Atg3 level at 1.25 to 5 uM incubated for 6 hrs in nutrient-deprived medium by Western blot analysis; type: cell-based; conditions: dose 1.25-5 µM
[11] = target: RAC-alpha serine/threonine-protein kinase (Homo sapiens) (UniProt P31749); experiment: Inhibition of Akt activation in human PANC-1 cells assessed as decrease in Akt phosphorylation at 5 uM incubated for 6 hrs in nutrient-deprived medium by Western blot analysis; type: cell-based
PANC-1 [12] = experiment: Inhibition of cell migration in human PANC-1 cells assessed as reduction in migration velocity at 20 uM measured every 15 min for 24 hrs in nutrient-rich Dulbecco's modified Eagle's medium by quantitative real-time cell migration assay; type: functional
[13] = target: RAC-alpha serine/threonine-protein kinase (Homo sapiens) (UniProt P31749); experiment: Inhibition of Akt activation in human PANC-1 cells assessed as effect on mTOR level at 1.25 to 5 uM incubated for 6 hrs in nutrient-deprived medium by Western blot analysis; type: cell-based; conditions: dose 1.25-5 µM

Compound `O=C(CCCCCCCCc1ccc2ccccc2c1)N1CCCCC1` has a PC50 (PANC-1 [1]) of 6 µM, a selectivity ratio [2] of 14.5 and an IC50 (PANC-1 [3]) of 87 µM.
In the case of `O=C(/C=C/CCCCCCc1ccccc1)N[C@H]1CC[C@H](O)CC1`, the PC50 (PANC-1 [1]) is reported as 52.1 µM, the selectivity ratio [2] is reported as > 1.9 and the IC50 (PANC-1 [3]) is reported as > 100 µM.
With `O=C(CCCCCCCCc1ccc(F)cc1)N1CCCCC1` the PC50 (PANC-1 [1]) was 3.5 µM, the selectivity ratio [2] was 28.5 and the IC50 (PANC-1 [3]) was 99.8 µM.
`O=C(CCCCCCCCc1ccc(Cl)cc1)N1CCCCC1` showed a PC50 (PANC-1 [1]) of 3.3 µM, a selectivity ratio [2] of 19.8 and an IC50 (PANC-1 [3]) of 65.5 µM.
For `O=C(CCCCCCCCCCc1ccccc1)N1CCCCC1`, the PC50 (PANC-1 [1]) was 6.6 µM, the selectivity ratio [2] was > 15.2 and the IC50 (PANC-1 [3]) was > 100 µM.
With `O=C(/C=C/CCCCCCc1ccccc1)N1CCCC1` the PC50 (PANC-1 [1]) was 4.1 µM, the selectivity ratio [2] was > 24.4 and the IC50 (PANC-1 [3]) was > 100 µM.
With `O=C(CCCCCC/C=C/c1ccccc1)N1CCCCC1` the PC50 (PANC-1 [1]) was 9.6 µM, the selectivity ratio [2] was 7.4 and the IC50 (PANC-1 [3]) was > 100 µM.
With `O=C(/C=C/CCCCCCc1ccccc1)N1CCOCC1` the PC50 (PANC-1 [1]) was 12.5 µM, the selectivity ratio [2] was > 8 and the IC50 (PANC-1 [3]) was > 100 µM.
In the case of `O=C(/C=C/CCCCC#Cc1ccccc1)N1CCCCC1`, the PC50 (PANC-1 [1]) is reported as 2.2 µM, the selectivity ratio [2] is reported as > 45.5 and the IC50 (PANC-1 [3]) is reported as > 100 µM.
For `Nc1ccn([C@@H]2O[C@H](CO)[C@@H](O)C2(F)F)c(=O)n1` [GEMCITABINE], the PC50 (PANC-1 [1]) was >100 µM and the IC50 (PANC-1 [3]) was > 100 µM.
For `O=C(CCCCCCCCc1ccccc1Cl)N1CCCCC1`, the PC50 (PANC-1 [1]) was 3.6 µM, the selectivity ratio [2] was > 27.8 and the IC50 (PANC-1 [3]) was > 100 µM.
In the case of `O=C(CCCCCCCc1ccccc1)N1CCCCC1`, the PC50 (PANC-1 [1]) is reported as 6.9 µM, the selectivity ratio [2] is reported as > 14.5 and the IC50 (PANC-1 [3]) is reported as > 100 µM.
For `O=C(/C=C/CCCCCCc1ccccc1)N1CCCCC1`, the PC50 (PANC-1 [1]) was 1.7 µM, the selectivity ratio [2] was > 58.8 and the IC50 (PANC-1 [3]) was > 100 µM.
With `Cc1ccc(CCCCCCCCC(=O)N2CCCCC2)cc1` the PC50 (PANC-1 [1]) was 4.1 µM, the selectivity ratio [2] was > 24.4 and the IC50 (PANC-1 [3]) was > 100 µM.
With `O=C(CCCOCCCCc1ccccc1)N1CCCCC1` the PC50 (PANC-1 [1]) was 26.6 µM, the selectivity ratio [2] was > 3.8 and the IC50 (PANC-1 [3]) was > 100 µM.
With `O=C(/C=C/CCCCCCc1ccccc1)N1CCCCCC1` the PC50 (PANC-1 [1]) was 3.1 µM, the selectivity ratio [2] was > 32.3 and the IC50 (PANC-1 [3]) was > 100 µM.
For `O=C(CCCCCCCCc1ccc(C(F)(F)F)cc1)N1CCCCC1`, the PC50 (PANC-1 [1]) was 3.2 µM, the selectivity ratio [2] was 16.9 and the IC50 (PANC-1 [3]) was 54 µM.
For `N#Cc1ccc(CCCCCCCCC(=O)N2CCCCC2)cc1`, the PC50 (PANC-1 [1]) was 4 µM, the selectivity ratio [2] was > 25 and the IC50 (PANC-1 [3]) was > 100 µM.
In the case of `O=C(/C=C\CCCCCCc1ccccc1)N1CCCCC1`, the PC50 (PANC-1 [1]) is reported as 2.3 µM, the selectivity ratio [2] is reported as > 43.5 and the IC50 (PANC-1 [3]) is reported as > 100 µM.
For `O=C(CCCCCCCCc1cccc(Cl)c1)N1CCCCC1`, the PC50 (PANC-1 [1]) was 4.3 µM, the selectivity ratio [2] was > 23.3 and the IC50 (PANC-1 [3]) was > 100 µM.
In the case of `O=C(/C=C/CCCC/C=C/c1ccc2c(c1)OCO2)N1CCCCC1` [PIPERNONALINE], the PC50 (PANC-1 [1]) is reported as 7.2 µM, the selectivity ratio [2] is reported as 7.6 and the IC50 (PANC-1 [3]) is reported as 54.9 µM.
In the case of `O=C(/C=C/CCCCCCc1ccccc1)NCc1ccccc1`, the PC50 (PANC-1 [1]) is reported as 6.1 µM, the selectivity ratio [2] is reported as > 16.4 and the IC50 (PANC-1 [3]) is reported as > 100 µM.
With `O=C(CCCCCCCCc1cccc(F)c1)N1CCCCC1` the PC50 (PANC-1 [1]) was 6.6 µM, the selectivity ratio [2] was > 15.2 and the IC50 (PANC-1 [3]) was > 100 µM.
With `O=C(CCCCCCCCc1ccccc1)N1CCCCC1` the PC50 (PANC-1 [1]) was 1.08 µM, the Ratio (PANC-1 [4]) was 7 and the inhibition at 20 µM (PANC-1 [5]) was 78%. For the same compound, the inhibition at 20 µM (PANC-1 [6]) was 50%, the inhibition [7] was “inactive” and the inhibition [8] was “inactive”. The inhibition [9] was “Active”, the inhibition [10] was “inactive” and the inhibition [11] was “Active”. The selectivity ratio [2] was > 90.9, the Activity (PANC-1 [12]) was 10.6 um2/s and the inhibition [13] was “inactive”. For the same compound, the IC50 (PANC-1 [3]) was > 100 µM.
In the case of `O=C(CCCCCCCCCc1ccccc1)N1CCCCC1`, the PC50 (PANC-1 [1]) is reported as 6.5 µM, the selectivity ratio [2] is reported as > 15.4 and the IC50 (PANC-1 [3]) is reported as > 100 µM.
In the case of `O=C(/C=C/CCCCCCc1ccccc1)N1CCC(O)CC1`, the PC50 (PANC-1 [1]) is reported as 9.4 µM, the selectivity ratio [2] is reported as > 10.6 and the IC50 (PANC-1 [3]) is reported as > 100 µM.
In the case of `O=C(CCCCCCCCC1CCCCC1)N1CCCCC1`, the PC50 (PANC-1 [1]) is reported as 12 µM, the selectivity ratio [2] is reported as > 8.3 and the IC50 (PANC-1 [3]) is reported as > 100 µM.
With `O=C(CCCCCCCCc1ccc(O)cc1)N1CCCCC1` the PC50 (PANC-1 [1]) was 7.8 µM, the selectivity ratio [2] was > 12.8 and the IC50 (PANC-1 [3]) was > 100 µM.
`O=C(CCCCCCCCc1ccccc1F)N1CCCCC1` showed a PC50 (PANC-1 [1]) of 4.6 µM, a selectivity ratio [2] of 21.5 and an IC50 (PANC-1 [3]) of 98.9 µM.
For `O=C(/C=C/CCCCCCc1ccccc1)Nc1ccccc1`, the PC50 (PANC-1 [1]) was 8.8 µM, the selectivity ratio [2] was > 11.4 and the IC50 (PANC-1 [3]) was > 100 µM.
In the case of `S=C(CCCCCCCCc1ccccc1)N1CCCCC1`, the PC50 (PANC-1 [1]) is reported as 2.2 µM, the selectivity ratio [2] is reported as > 45.5 and the IC50 (PANC-1 [3]) is reported as > 100 µM.
Compound `COc1ccc(CCCCCCCCC(=O)N2CCCCC2)cc1` has a PC50 (PANC-1 [1]) of 3.8 µM, a selectivity ratio [2] of 23.5 and an IC50 (PANC-1 [3]) of 89.3 µM.
With `O=C(CCCCCCc1ccccc1)N1CCCCC1` the PC50 (PANC-1 [1]) was 7.1 µM, the selectivity ratio [2] was > 14.1 and the IC50 (PANC-1 [3]) was > 100 µM.
